Assay results from the supplement of paper PMC10307832.

Columns and labels:
Test in all cases: relative viability (nuclei count vs DMSO), 5 days (fraction); higher = more cells survive
[1] = compound: O=C(C[C@H]1NCCC[C@@H]1O)Cn1cnc2cc(Br)c(Cl)cc2c1=O (racemic) [Halofuginone] + Cc1nc(NC(=O)N2CCC[C@H]2C(N)=O)sc1-c1ccnc(C(C)(C)C(F)(F)F)c1 [Alpelisib] (partner 2 µM)
In short: (§1)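 For relative viability, nuclei counts in treated wells were divided by those in vehicle wells. Lung cancer cell lines had been pin-tool dosed in 1536-well plates the day after seeding and cultured for 5 days, then fixed and stained in one step (final 0.05% Triton X-100, 1% formaldehyde, 1 ug/ml Hoechst) and imaged at 4×. Doses were one drug alone or a fixed anchor-drug dose plus five library-drug doses (not always all listed) in √10 steps, and values are duplicate-plate medians.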

[2] = compound: Nc1ncn([C@H]2C[C@H](O)[C@@H](CO)O2)c(=O)n1 [Decitabine] + CS(=O)(=O)CCNCc1ccc(-c2ccc3ncnc(Nc4ccc(OCc5cccc(F)c5)c(Cl)c4)c3c2)o1 [Lapatinib] (partner 2 µM)
In short: as §1

[3] = compound: COc1cc2c(Oc3ccc4[nH]c(C)cc4c3F)ncnc2cc1OCCCN1CCCC1 [Cediranib] + CCNC(=O)c1noc(-c2cc(C(C)C)c(O)cc2O)c1-c1ccc(CN2CCOCC2)cc1 [Luminespib] (partner 0.01 µM)
In short: as §1

[4] = compound: O=C(C[C@H]1NCCC[C@@H]1O)Cn1cnc2cc(Br)c(Cl)cc2c1=O (racemic) [Halofuginone] + CC(C)C[C@H](NC(=O)[C@H](Cc1ccccc1)NC(=O)c1cnccn1)B(O)O [Bortezomib] (partner 0.002 µM)
In short: as §1

HARA
relative viability ([1]; first compound 0.001 µM): 1.05 | relative viability ([1]; first compound 0.003162 µM): 0.817 | relative viability ([1]; first compound 0.01 µM): 0.836 | relative viability ([1]; first compound 0.03162 µM): 0.839 | relative viability ([1]; first compound 0.1 µM): 0.743 | relative viability ([2]; first compound 0.04 µM): 0.737 | relative viability ([2]; first compound 0.1265 µM): 0.935 | relative viability ([2]; first compound 0.4 µM): 0.443 | relative viability ([2]; first compound 1.265 µM): 0.432 | relative viability ([2]; first compound 4 µM): 0.296 | relative viability ([3]; first compound 0.04 µM): 0.822 | relative viability ([3]; first compound 0.4 µM): 0.528 | relative viability ([3]; first compound 1.265 µM): 0.775 | relative viability ([3]; first compound 4 µM): 1.09 | relative viability ([4]; first compound 0.001 µM): 1.12 | relative viability ([4]; first compound 0.003162 µM): 1.03 | relative viability ([4]; first compound 0.01 µM): 1.09 | relative viability ([4]; first compound 0.03162 µM): 1.15 | relative viability ([4]; first compound 0.1 µM): 1.14

LU99A
relative viability ([1]; first compound 0.001 µM): 0.553 | relative viability ([1]; first compound 0.003162 µM): 0.488 | relative viability ([1]; first compound 0.01 µM): 0.538 | relative viability ([1]; first compound 0.03162 µM): 0.475 | relative viability ([1]; first compound 0.1 µM): 0.326 | relative viability ([2]; first compound 0.04 µM): 1.01 | relative viability ([2]; first compound 0.1265 µM): 1.08 | relative viability ([2]; first compound 0.4 µM): 1.19 | relative viability ([2]; first compound 1.265 µM): 0.866 | relative viability ([2]; first compound 4 µM): 0.683 | relative viability ([3]; first compound 0.04 µM): 0.301 | relative viability ([3]; first compound 0.1265 µM): 0.255 | relative viability ([3]; first compound 0.4 µM): 0.252 | relative viability ([3]; first compound 1.265 µM): 0.269 | relative viability ([3]; first compound 4 µM): 0.256 | relative viability ([4]; first compound 0.001 µM): 1.15 | relative viability ([4]; first compound 0.003162 µM): 1.1 | relative viability ([4]; first compound 0.01 µM): 1.07 | relative viability ([4]; first compound 0.03162 µM): 1.14 | relative viability ([4]; first compound 0.1 µM): 0.8

NCI-H23
relative viability ([1]; first compound 0.001 µM): 0.548 | relative viability ([1]; first compound 0.003162 µM): 0.725 | relative viability ([1]; first compound 0.01 µM): 0.643 | relative viability ([1]; first compound 0.03162 µM): 0.814 | relative viability ([1]; first compound 0.1 µM): 0.224 | relative viability ([2]; first compound 0.04 µM): 0.777 | relative viability ([2]; first compound 0.1265 µM): 0.795 | relative viability ([2]; first compound 0.4 µM): 0.237 | relative viability ([2]; first compound 1.265 µM): 0.235 | relative viability ([2]; first compound 4 µM): 0.22 | relative viability ([3]; first compound 0.04 µM): 0.192 | relative viability ([3]; first compound 0.1265 µM): 0.218 | relative viability ([3]; first compound 0.4 µM): 0.213 | relative viability ([3]; first compound 1.265 µM): 0.253 | relative viability ([3]; first compound 4 µM): 0.238 | relative viability ([4]; first compound 0.001 µM): 1 | relative viability ([4]; first compound 0.003162 µM): 1.24 | relative viability ([4]; first compound 0.01 µM): 1.02 | relative viability ([4]; first compound 0.03162 µM): 0.947 | relative viability ([4]; first compound 0.1 µM): 0.494

NCI-H647
relative viability ([1]; first compound 0.001 µM): 1.24 | relative viability ([1]; first compound 0.003162 µM): 1.17 | relative viability ([1]; first compound 0.01 µM): 1.1 | relative viability ([1]; first compound 0.03162 µM): 0.781 | relative viability ([1]; first compound 0.1 µM): 0.102 | relative viability ([2]; first compound 0.04 µM): 0.756 | relative viability ([2]; first compound 0.1265 µM): 0.77 | relative viability ([2]; first compound 0.4 µM): 0.537 | relative viability ([2]; first compound 1.265 µM): 0.271 | relative viability ([2]; first compound 4 µM): 0.194 | relative viability ([3]; first compound 0.04 µM): 0.13 | relative viability ([3]; first compound 0.1265 µM): 0.308 | relative viability ([3]; first compound 0.4 µM): 0.174 | relative viability ([3]; first compound 1.265 µM): 0.157 | relative viability ([3]; first compound 4 µM): 0.212 | relative viability ([4]; first compound 0.001 µM): 1.2 | relative viability ([4]; first compound 0.003162 µM): 1.1 | relative viability ([4]; first compound 0.01 µM): 0.833 | relative viability ([4]; first compound 0.03162 µM): 0.912 | relative viability ([4]; first compound 0.1 µM): 0.367

201T
relative viability ([1]; first compound 0.001 µM): 1.04 | relative viability ([1]; first compound 0.003162 µM): 1.01 | relative viability ([1]; first compound 0.01 µM): 1.01 | relative viability ([1]; first compound 0.03162 µM): 0.998 | relative viability ([1]; first compound 0.1 µM): 0.841 | relative viability ([2]; first compound 0.04 µM): 1.04 | relative viability ([2]; first compound 0.1265 µM): 1.04 | relative viability ([2]; first compound 0.4 µM): 1.13 | relative viability ([2]; first compound 1.265 µM): 0.627 | relative viability ([2]; first compound 4 µM): 0.993 | relative viability ([3]; first compound 0.04 µM): 1.2 | relative viability ([3]; first compound 0.1265 µM): 1.34 | relative viability ([3]; first compound 0.4 µM): 1 | relative viability ([3]; first compound 1.265 µM): 1.03 | relative viability ([3]; first compound 4 µM): 1.03 | relative viability ([4]; first compound 0.001 µM): 1.06 | relative viability ([4]; first compound 0.003162 µM): 1.1 | relative viability ([4]; first compound 0.01 µM): 1.15 | relative viability ([4]; first compound 0.03162 µM): 1.1 | relative viability ([4]; first compound 0.1 µM): 1.16

NCI-H1734
relative viability ([1]; first compound 0.001 µM): 0.685 | relative viability ([1]; first compound 0.003162 µM): 0.679 | relative viability ([1]; first compound 0.01 µM): 0.674 | relative viability ([1]; first compound 0.03162 µM): 0.612 | relative viability ([1]; first compound 0.1 µM): 0.452 | relative viability ([2]; first compound 0.04 µM): 0.727 | relative viability ([2]; first compound 0.1265 µM): 0.91 | relative viability ([2]; first compound 0.4 µM): 0.635 | relative viability ([2]; first compound 1.265 µM): 0.449 | relative viability ([2]; first compound 4 µM): 0.38 | relative viability ([3]; first compound 0.04 µM): 0.238 | relative viability ([3]; first compound 0.1265 µM): 0.185 | relative viability ([3]; first compound 0.4 µM): 0.208 | relative viability ([3]; first compound 1.265 µM): 0.208 | relative viability ([3]; first compound 4 µM): 0.176 | relative viability ([4]; first compound 0.001 µM): 1.14 | relative viability ([4]; first compound 0.003162 µM): 0.919 | relative viability ([4]; first compound 0.01 µM): 0.939 | relative viability ([4]; first compound 0.03162 µM): 0.814 | relative viability ([4]; first compound 0.1 µM): 0.632

NCI-H596
relative viability ([1]; first compound 0.001 µM): 0.478 | relative viability ([1]; first compound 0.003162 µM): 0.467 | relative viability ([1]; first compound 0.01 µM): 0.453 | relative viability ([1]; first compound 0.03162 µM): 0.544 | relative viability ([1]; first compound 0.1 µM): 0.465 | relative viability ([2]; first compound 0.04 µM): 1.12 | relative viability ([2]; first compound 0.1265 µM): 1.06 | relative viability ([2]; first compound 0.4 µM): 0.576 | relative viability ([2]; first compound 1.265 µM): 0.954 | relative viability ([2]; first compound 4 µM): 0.783 | relative viability ([3]; first compound 0.04 µM): 0.709 | relative viability ([3]; first compound 0.1265 µM): 1.06 | relative viability ([3]; first compound 0.4 µM): 0.98 | relative viability ([3]; first compound 4 µM): 0.955 | relative viability ([4]; first compound 0.001 µM): 1 | relative viability ([4]; first compound 0.003162 µM): 1.01 | relative viability ([4]; first compound 0.01 µM): 0.934 | relative viability ([4]; first compound 0.03162 µM): 1.01 | relative viability ([4]; first compound 0.1 µM): 0.698
